Measurements taken from paper PMC2962730 (Journal of neurochemistry, 2010).

Biological target: T1, hVAChT F392A (Homo sapiens, UniProt Q16572, F392A)
T1 sequence (Q16572 1-532 F392A): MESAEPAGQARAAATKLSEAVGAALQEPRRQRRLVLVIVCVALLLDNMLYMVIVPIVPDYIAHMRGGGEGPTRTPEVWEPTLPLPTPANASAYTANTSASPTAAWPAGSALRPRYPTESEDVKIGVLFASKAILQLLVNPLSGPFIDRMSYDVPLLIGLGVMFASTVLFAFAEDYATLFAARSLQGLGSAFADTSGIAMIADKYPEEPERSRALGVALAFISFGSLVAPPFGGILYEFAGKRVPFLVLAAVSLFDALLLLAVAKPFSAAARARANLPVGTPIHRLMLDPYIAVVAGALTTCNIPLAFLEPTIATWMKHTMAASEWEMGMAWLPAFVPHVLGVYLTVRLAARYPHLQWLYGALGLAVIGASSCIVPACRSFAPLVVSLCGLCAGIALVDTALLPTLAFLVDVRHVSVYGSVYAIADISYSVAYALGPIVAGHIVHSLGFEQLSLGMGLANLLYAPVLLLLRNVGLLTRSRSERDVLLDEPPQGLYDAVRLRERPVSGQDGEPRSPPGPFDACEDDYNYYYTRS
Assay: [3H]ACh transport
Assay type: biochemical

Vmax/Bmax, ACh transport normalized to Bmax (pH 7.4): 11 ± 1 min⁻¹
Km (read-out: KM, Michaelis-Menten constant for ACh transport, pH 7.4): 520 ± 110 µM
SMILES: CC(=O)OCC[N+](C)(C)C [ACh, acetylcholine]
